Test system: 945468-187-T-J3-PDC spheroids with HUVEC/MSC, viability
Experiment: Anticancer human tumor 945468-187-T-J3-PDC patient-derived rectal carcinoma cell line growth inhibition [PI3K]
Settings: for IC50: curve of first compound; for viability, T/C: stronger effect = lower value; active = viability on the fitted dose curve at most 10% of control; inactive = the rest
In short: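 Stroma-containing spheroids: tumor line, pooled-donor HUVEC, hMSC. Treatments: targeted agents with PI3K inhibitors. Dosing: clinically relevant, half-log spacing, 10 microM ceiling without known Cmax. Read-out: cell viability.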

[1] = second compound 0.0316 µM, first compound 0.000316 µM
[2] = second compound 0.0316 µM, first compound 0.001 µM
[3] = second compound 0.0316 µM, first compound 0.00316 µM
[4] = second compound 0.0316 µM, first compound 0.01 µM
[5] = second compound 0.0316 µM, first compound 0.0316 µM
[6] = second compound 0.0316 µM, first compound 0.1 µM
[7] = second compound 0.1 µM, first compound 0.000316 µM
[8] = second compound 0.1 µM, first compound 0.001 µM
[9] = second compound 0.1 µM, first compound 0.00316 µM
[10] = second compound 0.1 µM, first compound 0.01 µM
[11] = second compound 0.1 µM, first compound 0.0316 µM
[12] = second compound 0.1 µM, first compound 0.1 µM
[13] = second compound 0.316 µM, first compound 0.000316 µM
[14] = second compound 0.316 µM, first compound 0.001 µM
[15] = second compound 0.316 µM, first compound 0.00316 µM
[16] = second compound 0.316 µM, first compound 0.01 µM
[17] = second compound 0.316 µM, first compound 0.0316 µM
[18] = second compound 0.316 µM, first compound 0.1 µM
[19] = second compound 1 µM, first compound 0.000316 µM
[20] = second compound 1 µM, first compound 0.001 µM
[21] = second compound 1 µM, first compound 0.00316 µM
[22] = second compound 1 µM, first compound 0.01 µM
[23] = second compound 1 µM, first compound 0.0316 µM
[24] = second compound 1 µM, first compound 0.1 µM
[25] = second compound 3.16 µM, first compound 0.000316 µM
[26] = second compound 3.16 µM, first compound 0.001 µM
[27] = second compound 3.16 µM, first compound 0.00316 µM
[28] = second compound 3.16 µM, first compound 0.01 µM
[29] = second compound 3.16 µM, first compound 0.0316 µM
[30] = second compound 3.16 µM, first compound 0.1 µM
[31] = second compound 10 µM, first compound 0.000316 µM
[32] = second compound 10 µM, first compound 0.001 µM
[33] = second compound 10 µM, first compound 0.00316 µM
[34] = second compound 10 µM, first compound 0.01 µM
[35] = second compound 10 µM, first compound 0.0316 µM
[36] = second compound 10 µM, first compound 0.1 µM
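Note: spheroids exposed to agents for 7 days before viability read.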
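Throughout, for viability, T/C: 100% = DMSO vehicle control viability.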

CC(=O)c1c(C)c2cnc(Nc3ccc(N4CCNCC4)cn3)nc2n(C2CCCC2)c1=O + Cc1nc(NC(=O)N2CCCC2C(N)=O)sc1-c1ccnc(C(C)(C)C(F)(F)F)c1
inactive: viability, T/C [1] 98.8% | viability, T/C [2] 100% | viability, T/C [3] 90.7% | viability, T/C [4] 107% | viability, T/C [5] 97.5% | viability, T/C [6] 104% | viability, T/C [7] 91.5% | viability, T/C [8] 107% | viability, T/C [9] 85.5% | viability, T/C [10] 91% | viability, T/C [11] 100% | viability, T/C [12] 102% | viability, T/C [13] 103% | viability, T/C [14] 101% | viability, T/C [15] 103% | viability, T/C [16] 97.9% | viability, T/C [17] 99.8% | viability, T/C [18] 94.3% | viability, T/C [19] 111% | viability, T/C [20] 103% | viability, T/C [21] 100% | viability, T/C [22] 97.6% | viability, T/C [23] 101% | viability, T/C [24] 102% | viability, T/C [25] 106% | viability, T/C [26] 93.2% | viability, T/C [27] 90.5% | viability, T/C [28] 90.7% | viability, T/C [29] 90.7% | viability, T/C [30] 76.2% | viability, T/C [31] 57.6% | viability, T/C [32] 56% | viability, T/C [33] 55.1% | viability, T/C [34] 49.3% | viability, T/C [35] 46% | viability, T/C [36] 31.3%
12.4 nM: IC50 (second compound 10 µM)
> 100 nM: IC50 (second compound 0.0316 µM) | IC50 (second compound 0.1 µM) | IC50 (second compound 0.316 µM) | IC50 (second compound 1 µM) | IC50 (second compound 3.16 µM)

CC(C)n1nc(-c2ccc3oc(N)nc3c2)c2c(N)ncnc21 + Cc1nc(NC(=O)N2CCCC2C(N)=O)sc1-c1ccnc(C(C)(C)C(F)(F)F)c1
inactive: viability, T/C [1] 105% | viability, T/C [2] 118% | viability, T/C [3] 98.8% | viability, T/C [4] 114% | viability, T/C [5] 127% | viability, T/C [6] 65.5% | viability, T/C [7] 109% | viability, T/C [8] 109% | viability, T/C [9] 95.4% | viability, T/C [10] 115% | viability, T/C [11] 118% | viability, T/C [12] 54.5% | viability, T/C [13] 113% | viability, T/C [14] 104% | viability, T/C [15] 97.5% | viability, T/C [16] 121% | viability, T/C [17] 111% | viability, T/C [18] 53.3% | viability, T/C [19] 116% | viability, T/C [20] 114% | viability, T/C [21] 101% | viability, T/C [22] 109% | viability, T/C [23] 84% | viability, T/C [24] 39.6% | viability, T/C [25] 108% | viability, T/C [26] 104% | viability, T/C [27] 102% | viability, T/C [28] 77.2% | viability, T/C [29] 49.9% | viability, T/C [30] 29.7% | viability, T/C [31] 68% | viability, T/C [32] 53.3% | viability, T/C [33] 64.3% | viability, T/C [34] 50.2% | viability, T/C [35] 31.8% | viability, T/C [36] 22.7%
77 nM: IC50 (second compound 1 µM)
> 100 nM: IC50 (second compound 0.0316 µM) | IC50 (second compound 0.1 µM) | IC50 (second compound 0.316 µM)
30.2 nM: IC50 (second compound 3.16 µM)
10.7 nM: IC50 (second compound 10 µM)

CCCS(=O)(=O)Nc1ccc(F)c(C(=O)c2c[nH]c3ncc(-c4ccc(Cl)cc4)cc23)c1F + Cc1nc(NC(=O)N2CCCC2C(N)=O)sc1-c1ccnc(C(C)(C)C(F)(F)F)c1
inactive: viability, T/C [5] 99.8% | viability, T/C [6] 109% | viability, T/C (second compound 0.0316 µM, first compound 0.316 µM) 87.1% | viability, T/C (second compound 0.0316 µM, first compound 1 µM) 103% | viability, T/C (second compound 0.0316 µM, first compound 3.16 µM) 107% | viability, T/C (second compound 0.0316 µM, first compound 10 µM) 17.1% | viability, T/C [11] 111% | viability, T/C [12] 98% | viability, T/C (second compound 0.1 µM, first compound 0.316 µM) 93.3% | viability, T/C (second compound 0.1 µM, first compound 1 µM) 105% | viability, T/C (second compound 0.1 µM, first compound 3.16 µM) 107% | viability, T/C (second compound 0.1 µM, first compound 10 µM) 26.9% | viability, T/C [17] 109% | viability, T/C [18] 101% | viability, T/C (second compound 0.316 µM, first compound 0.316 µM) 100% | viability, T/C (second compound 0.316 µM, first compound 1 µM) 119% | viability, T/C (second compound 0.316 µM, first compound 3.16 µM) 108% | viability, T/C (second compound 0.316 µM, first compound 10 µM) 37.9% | viability, T/C [23] 119% | viability, T/C [24] 116% | viability, T/C (second compound 1 µM, first compound 0.316 µM) 112% | viability, T/C (second compound 1 µM, first compound 1 µM) 114% | viability, T/C (second compound 1 µM, first compound 3.16 µM) 104% | viability, T/C (second compound 1 µM, first compound 10 µM) 56.9% | viability, T/C [29] 106% | viability, T/C [30] 110% | viability, T/C (second compound 3.16 µM, first compound 0.316 µM) 101% | viability, T/C (second compound 3.16 µM, first compound 1 µM) 99.7% | viability, T/C (second compound 3.16 µM, first compound 3.16 µM) 96.3% | viability, T/C (second compound 3.16 µM, first compound 10 µM) 31.2% | viability, T/C [35] 67.1% | viability, T/C [36] 52.8% | viability, T/C (second compound 10 µM, first compound 0.316 µM) 53.3% | viability, T/C (second compound 10 µM, first compound 1 µM) 64.9% | viability, T/C (second compound 10 µM, first compound 3.16 µM) 41.5%
1840 nM: IC50 (second compound 10 µM)
active: viability, T/C (second compound 10 µM, first compound 10 µM) 5.18%
> 10000 nM: IC50 (second compound 1 µM)
7050 nM: IC50 (second compound 0.1 µM)
7200 nM: IC50 (second compound 3.16 µM)
6380 nM: IC50 (second compound 0.0316 µM)
8190 nM: IC50 (second compound 0.316 µM)

Reference: PubChem BioAssay AID1963968 (Molecular Pharmacology Branch, DTP, NCI, 2024)
